Test results from US11730734B2, “Use of ATR and Chk1 inhibitor compounds” (University of Florida Research Foundation, Incorporated, priority 2016, dated 2023).
Entries after “also recorded” stand apart in the source; their conditions may differ.

Columns and labels:
[1] = system: 17+HSV-1; assay: Antiviral assay, HSV-1 titering (viral titer / PFU on rabbit skin cells); assay type: cell-based; details: U2OS cells, 17+HSV-1 MOI=0.1, 48 h; ATR inhibitors 10 μM, Chk1 inhibitors 250 nM, aphidicolin 4 μM, KU55933 10 μM, Chk2 inhibitor II 5 μM, NU7441 1 μM
[2] = system: ICP4; assay: ICP4 expression by immunofluorescence in HSV-1 infected cells; assay type: cell-based; details: VE-822 10 μM, 17+HSV-1 MOI=10, 5 h.p.i.
Experimental: (§1) U2OS cells were plated onto coverslips at 75,000 cells per well of 24-well plates and the following day infected at an MOI=10 for the indicated times.
(§2) Thereafter, cells were processed for immunofluorescence in one of two ways that incorporated an Fc receptor blocking step: (1) cells were fractionated in situ by pre-extraction following previously published procedures; briefly, cells were incubated in Cytoskeleton Buffer (CB; 100 mM PIPES, 300 mM sucrose, 100 mM NaCl, 3 mM MgCl2, 1 mM EGTA) for 5 min on ice followed by incubation in Cytoskeleton Stripping Buffer (CSK; 10 mM Tri-HCL pH 7.4, 10 mM NaCl, 3 mM MgCl2, 1% Tween-40, 1% Tween-20, 0.5% sodium deoxycholate) for 5 min on ice. Cells were then washed 3× with PBS and fixed with Streck fixative (150 mM 2-bromo-2-nitro-1,3-propanediol, 108 mM diazolidinyl urea, 10 mM sodium citrate, 50 mM EDTA) for 30 min at RT, washed with PBS, and permeabilized with 0.5% Triton X-100 in 100 mM Tris-HCL pH 7.4 plus 50 mM EDTA for 15 min at RT. Cells were then incubated sequentially with Fc Receptor Blocker (Innovex Biosciences, catalog no. NB309) for 30 min at RT followed by blocking buffer (5% goat serum, 0.1% NP-40, 20 mM Tris-HCL pH 7.4, 150 mM NaCl) for 30 min at RT. (2) In some cases cells were fixed in 3.7% paraformaldehyde in PBS for 5 min at RT followed by blocking with Fc Receptor Blocker and blocking buffer as above. […]

[3] = system: viral replication centers; assay: Viral replication center formation / maturation (immunofluorescence); assay type: cell-based, HSV-1; details: for replication center formation: 5 h
Experimental: (§3) Cells were plated at 5×10^5 cells per well in 6-well plates and the following morning incubated with inhibitors. Following 1 h pre-incubation with inhibitors, cells were infected with HSV-1 at an MOI=0.1 in a volume of 200 uL for 1 h, viral inoculum removed, and cells overlaid with media containing fresh inhibitors, and cultured for 48 h. Following 48 h, cells and supernatant were harvested by scraping, separated into two Eppendorf tubes, and centrifuged at 10,000×g for 40 min. The cell pellet from one tube was used for extraction of DNA (DNazol according to manufacturer's recommendation, ThermoFisher Sci. catalog no. 10503027) and the second pellet was re-suspended in 200 uL serum-free MEM, freeze-thawed 3×, and virus titered on rabbit skin cells. For HSV-1 titering, rabbit skin cells were plated at 150,000 cells/well of 24-well plates and the following day infected with 10-fold serial dilutions of virus harvested from antiviral experiments. Cells were incubated for 48 h, stained with 1% crystal violet solution, and plaques counted from three separate wells for each experimental sample. Q-PCR was conducted using 20 ng input DNA, TaqMan® Fast Universal PCR 2× Master Mix (Applied Biosystems, catalog no. 4352041) along with TaqMan probes and target-specific primers (Applied Biosystems, Assays by Design part no. 4331348) against HSV-1 polymerase. Samples were run on a StepOnePlus Real-Time PCR System (Applied Biosystems) using fast cycling: denaturation at 95° C. for 20 sec followed by 40 cycles at 95° C. for 1 sec and 60° C. for 20 sec. Additional experimental compounds were also tested as follows: […] Cyclohexamide (Sigma, catalog no. C7698) or DMSO vehicle was added to the overlay media at 50 ug/mL and the infection allowed to proceed for 5 h. (2) For replication inhibition, phosphonoacetic acid (PAA) was added at time of virus adsorption and included in overlay media at 400 ug/mL for 5 h. (3) A final [3 mM] hydroxyurea was added at the time of cell plating and incubated for 18 h. […]

[4] = system: ICP8; assay: ICP8 expression in HSV-1 infected cells (data not shown); assay type: cell-based; details: VE-822 10 μM
Experimental: as §1, §2

[5] = system: Chk1; assay: Chk1 activation (pChk1 S345 Western blot) in HSV-1 infected cells; assay type: cell-based
Experimental: 5×10^5 cells were plated on 6-well plates and infected the following day with 17syn+(MOI=10). At the indicated times, cells were lysed in buffer containing 1% NP-40, 150 mM sodium chloride, 20 mM Tris-HCL pH 8.0, 2 mM EDTA, and 5% glycerol supplemented with phosphatase and protease inhibitor cocktails (Roche, PhosSTOP tablets; catalog no. 04906837001; ThermoFisherSci., Halt Protease Inhibitor Cocktail, catalog no. 1862209). For SDS-PAGE, 20 ug of protein was mixed with NuPAGE 4×LDS sample buffer (ThermoFisher Sci., catalog no. NP0007) along with NuPAGE Sample Reducing Agent (ThermoFisher Sci., catalog no. NP0004) and run on 4-12% Bis-Tris NuPAGE gels (ThermoFisher Sci.) with NuPAGE MOPS SDS running buffer (ThermoFisher Sci., catalog no. NP000102). Gels were transferred onto 0.22 μm PVDF in Towbin buffer (0.2 M Glycine, 25 mM Tris Base) containing 20% MeOH for 2 h under constant voltage (30V), the membrane blocked with 5% non-fat dry milk (NFDM)-TBST (20 mM Tris-HCL pH 7.4, 150 mM NaCl, 0.1% Tween-20) and probed with antibodies diluted in 1% NFDM-TBST overnight at 4° C. For ATR and ATM western blots, samples were processed as above except DTT (50 mM, Cell Signaling, catalog no. 7016) was used as the reducing agent and samples were run on NuPAGE Novex 3-8% Tris-acetate gels (ThermoFisher Sci.) with NuPAGE Tris-acetate SDS running buffer (ThermoFisher Sci., catalog no. LA0041). […]

[6] = system: ATR; assay: ATR activation (pATR S428 immunofluorescence) in HSV-1 infected U2OS cells; assay type: cell-based; details: for ATR activation (pATR labeling): 5 h
Experimental: as §3

[7] = system: Chk1; assay: Chk1 activation following KD6 infection of permissive Vero cell line K5; assay type: cell-based; details: KD6 infection of Vero cell line K5, cycloheximide

Q: With C[C@@]1(CO)[C@H](O)CC[C@@]2(C)[C@H]1CC[C@H]1C[C@@H]3C[C@@]12CC[C@]3(O)CO [aphidicolin] as the compound, how does the “viral titers (HSV-1 PFU, virus production)” value [1] read?
A: significantly inhibit viral titers; also recorded: significantly impact virus production

Q: For CNCc1ccc(-c2cc(-c3nc(-c4ccc(S(=O)(=O)C(C)C)cc4)cnc3N)on2)cc1 [VE-822], which “expression of ICP4” value [2] is on record?
A: blocked expression of ICP4; also recorded: blocking expression of both ICP4 and ICP8

Q: What about the “maturation of replication centers” value ([3]; VE-822, during HSV-1 infection) of the same compound?
A: blocks maturation of replication centers

Q: And the “expression of ICP8” value [4]?
A: blocked expression; also recorded: blocking expression of both ICP4 and ICP8

Q: And the “Chk1 activation / phosphorylation” value ([5]; VE-822 10 μM, 17+HSV-1 MOI=10, Western blot)?
A: Chk1 activation was also blocked; also recorded: blocks activation of both ATR and Chk1; also recorded: blocks phosphorylation of Chk1

Q: And the “ATR activation (pATR)” value ([6]; VE-822 10 μM, 17+HSV-1 MOI=10, 5 h.p.i.)?
A: blocked ATR activation; also recorded: blocks activation of both ATR and Chk1

Q: Which results are given for C[C@@H]1C[C@@H]([C@H](O)CC2CC(=O)NC(=O)C2)C(=O)[C@@H](C)C1 [cycloheximide]?
A: Chk1 activation [7]: blocked; replication center formation ([3]; cycloheximide 50 ug/mL): retards replication center formation; Chk1 activation ([5]; cycloheximide): complete suppression; ATR activation (pATR labeling) ([6]; cycloheximide 50 ug/mL in overlay media): completely blocked ATR activation; also recorded: complete suppression; also recorded: completely suppresses pATR labeling

Q: Which results are given for O=C(O)CP(=O)(O)O [PAA, phosphonoacetic acid]?
A: replication center formation ([3]; PAA 400 ug/mL): retards replication center formation; ATR activation (pATR labeling) ([6]; PAA 400 ug/mL from virus adsorption): partially suppressed ATR activation; also recorded: partial suppression; also recorded: partially blocks pATR labeling

Q: With Cn1cc(-c2[nH]c3cc(NC(=O)[C@H](N)C4CCCCC4)cc4c3c2C=NNC4=O)cn1 [PF477736] as the compound, how does the “viral titers (HSV-1 PFU, virus production)” value [1] read?
A: significantly impact virus production
